In general, EC50 refers to the midpoint of the concentration-response curve. The IC50 is the point on the concentration scale where inhibition reaches its midpoint.

Experiment [1] deals with NFAT signaling pathway in Jurkat NFAT reporter cells. Description: Jurkat NFAT reporter assay. It is filed as cell-based. The settings on record: Homo sapiens, 30 min with compound, then soluble anti-human CD3/CD28 antibody for 6 hours, luciferase readout, read-out: EC50 (Group). An outline of the steps: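 Results are expressed as fold change relative to stimulated, inhibitor-free cells. Stimulation was 6 h with soluble anti-human CD3/CD28 antibody after a 30-min exposure of 1×10^5 NFAT-RE luciferase Jurkat reporter cells per well to the Cbl-b inhibitor; signal read by Bio-Glo bioluminescence.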

Experiment [2] deals with T1, human recombinant CBL-b (human Biotin CBL-b recombinant protein a.a. 39-426) (Homo sapiens, UniProt Q13191).
T1 construct: human Biotin CBL-b recombinant protein a.a; 39-426; Biotin (biotinylated); made in house
T1 sequence (Q13191 39-426): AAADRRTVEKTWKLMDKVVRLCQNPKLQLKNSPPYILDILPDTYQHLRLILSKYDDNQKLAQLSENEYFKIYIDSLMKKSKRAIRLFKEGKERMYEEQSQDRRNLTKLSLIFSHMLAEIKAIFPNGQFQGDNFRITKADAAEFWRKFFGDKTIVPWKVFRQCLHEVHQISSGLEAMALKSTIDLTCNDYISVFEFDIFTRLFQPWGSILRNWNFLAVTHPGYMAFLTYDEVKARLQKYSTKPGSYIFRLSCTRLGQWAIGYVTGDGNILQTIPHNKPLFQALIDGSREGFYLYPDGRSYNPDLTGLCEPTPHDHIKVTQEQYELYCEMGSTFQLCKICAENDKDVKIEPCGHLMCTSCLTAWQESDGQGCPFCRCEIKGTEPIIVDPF
Description: Biochemical assay for CBL-b inhibition (ligand displacement TR-FRET). The format is binding. The settings on record: 50 nM CBL-b, 0.3 μM Bodipy FL-Probe, read-out: IC50 (CBL-b inhibition, group). The method in brief:
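Ligand-displacement TR-FRET: 0.3 μM Bodipy FL probe competes with compound for 50 nM biotin-CBL-b (aa 39-426) after a 60 min RT compound pre-incubation; terbium-streptavidin detection, 60 min each step. Dose-response sigmoidal fitting gave IC50 and % maximum inhibition.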

In the case of `Cc1cc(CNCCC(F)(F)F)cc(N2Cc3ccc(-c4ccc(F)cc4-c4nncn4C)cc3C2=O)n1` [Compound 326, 6-(4-Fluoro-2-(4-methyl-4H-1,2,4-triazol-3-yl)phenyl)-2-(6-methyl-4-(((3,3,3-trifluoropropyl)amino)methyl)pyridin-2-yl)isoindolin-1-one], in experiment [1], the concentration for a half-maximal effect (EC50) lay in the range of 1000 to 10000 nM. Besides, the concentration for half-maximal inhibition (IC50) in experiment [2] was below 80 nM.
For `C[C@@H](Cc1nncn1C)c1ccc2c(c1)C(=O)N(c1cc(CNCC3CCC3)cc(Cl)n1)C2` (single isomer, unassigned) [Compound 171] the same measures were below 300 nM and below 80 nM.
In the case of `COc1ccc(-c2ccc3c(c2)C(=O)N(c2cc(CNCC4CC4)cc(C)n2)C3)c(-c2nncn2C)c1` [Compound 273, 2-(4-(((Cyclopropylmethyl)amino)methyl)-6-methylpyridin-2-yl)-6-(4-methoxy-2-(4-methyl-4H-1,2,4-triazol-3-yl)phenyl)isoindolin-1-one], in experiment [1], the EC50 lay within 1000 to 10000 nM. Further, the IC50 in experiment [2] is below 80 nM.
On to `C[C@@H]1C[C@H](C)CN(Cc2cc(N3Cc4ccc([C@H](C)Cc5nncn5C)cc4C3=O)nc(C(F)(F)F)c2)C1` (single isomer, unassigned) [Compound 87], for which, in experiment [1], the concentration giving a half-maximal response (EC50) lay in the range of 300 to 1000 nM. The IC50 in experiment [2] fell in the range of 80 to 300 nM.
Take `COC1CCCC1NCc1cc(Cl)nc(N2Cc3ccc(C4(Cc5nncn5C)COC4)cc3C2=O)c1` (stereo not shown) [Compound 253, 2-(6-Chloro-4-(((2-methoxycyclopentyl)amino)methyl)pyridin-2-yl)-6-(3-((4-methyl-4H-1,2,4-triazol-3-yl)methyl)oxetan-3-yl)isoindolin-1-one]: in experiment [1], the concentration for a half-maximal effect (EC50) was below 300 nM. In experiment [2], the 50% inhibitory concentration (IC50) was below 80 nM.
For `C[C@@H]1C[C@H](C)CN(Cc2cc(N3Cc4ccc(C5(Cc6nncn6C)COC5)cc4C3=O)cc(C(F)(F)F)c2)C1` [Compound 65, 2-(3-(((3S,5R)-3,5-Dimethylpiperidin-1-yl)methyl)-5-(trifluoromethyl)phenyl)-6-(3-((4-methyl-4H-1,2,4-triazol-3-yl)methyl)oxetan-3-yl)isoindolin-1-one] the same measures were 300 to 1000 nM and 80 to 300 nM.
For `Cn1cnnc1CC1(c2ccc3c(c2)C(=O)N(c2cc(CNCC4CC(F)(F)C4)cc(Cl)n2)C3)COC1` [Compound 169, 2-(6-Chloro-4-((((3,3-difluorocyclobutyl)methyl)amino)methyl)pyridin-2-yl)-6-(3-((4-methyl-4H-1,2,4-triazol-3-yl)methyl)oxetan-3-yl)isoindolin-1-one] the same measures were below 300 nM and below 80 nM.
With `Cn1cnnc1CC1(c2ccc3c(c2)C(=O)N(c2cc(CN4CCCc5c4cnn5C)cc(C(F)(F)F)n2)C3)COC1` [Compound 92, 2-(4-((1-Methyl-1,5,6,7-tetrahydro-4H-pyrazolo[4,3-b]pyridin-4-yl)methyl)-6-(trifluoromethyl)pyridin-2-yl)-6-(3-((4-methyl-4H-1,2,4-triazol-3-yl)methyl)oxetan-3-yl)isoindolin-1-one], the half-maximal effective concentration (EC50) in experiment [1] lay in the range of 1000 to 10000 nM. For the same compound, in experiment [2], the IC50 lay within 300 to 5000 nM.
Taken in the same sequence, the figures for `C[C@H]1CCCN(Cc2cc(F)cc(N3Cc4ccc(C5(Cc6nncn6C)COC5)cc4C3=O)c2)C1` [Compound 3, (S)-2-(3-Fluoro-5-((3-methylpiperidin-1-yl)methyl)phenyl)-6-(3-((4-methyl-4H-1,2,4-triazol-3-yl)methyl)oxetan-3-yl)isoindolin-1-one] were 1000 to 10000 nM and below 80 nM.
`Cc1cc(C(C)NCC2CC2)cc(N2Cc3ccc(-c4ccc(F)cc4-c4nncn4C)cc3C2=O)n1` (stereo not shown) [Compound 282, 2-(4-(1-((Cyclopropylmethyl)amino)ethyl)-6-methylpyridin-2-yl)-6-(4-fluoro-2-(4-methyl-4H-1,2,4-triazol-3-yl)phenyl)isoindolin-1-one]: the EC50 in experiment [1] was below 300 nM. For the same compound, the 50% inhibitory concentration (IC50) in experiment [2] was below 80 nM.
Taken in the same sequence, the figures for `CC(NCC1CC(F)(F)C1)c1cc(Cl)nc(N2Cc3ccc(-c4ccc(Cl)cc4-c4nncn4C)cc3C2=O)c1` (stereo not shown) [Compound 121, 6-(4-Chloro-2-(4-methyl-4H-1,2,4-triazol-3-yl)phenyl)-2-(6-chloro-4-(1-(((3,3-difluorocyclobutyl)methyl)amino)ethyl)pyridin-2-yl)isoindolin-1-one] were below 300 nM and below 80 nM.
For `C[C@@H]1CCN(Cc2cc(Cl)nc(N3Cc4ccc(C5(Cc6nncn6C)COC5)cc4C3=O)c2)C1` [Compound 68, (R)-2-(6-Chloro-4-((3-methylpyrrolidin-1-yl)methyl)pyridin-2-yl)-6-(3-((4-methyl-4H-1,2,4-triazol-3-yl)methyl)oxetan-3-yl)isoindolin-1-one] the same measures were 300 to 1000 nM and 80 to 300 nM.
For `Cc1cc(CNCC2CC2)cc(N2Cc3c(F)cc(-c4ccc(F)cc4-c4nncn4C)cc3C2=O)n1` [Compound 296] the same measures were 1000 to 10000 nM and below 80 nM.
With `Cn1cnnc1-c1cc(Cl)ccc1-c1ccc2c(c1)C(=O)N(c1cc(CNCC3CC3)cc(Cl)n1)C2` [Compound 102, 6-(4-Chloro-2-(4-methyl-4H-1,2,4-triazol-3-yl)phenyl)-2-(6-chloro-4-(((cyclopropylmethyl)amino)methyl)pyridin-2-yl)isoindolin-1-one], the concentration for a half-maximal effect (EC50) in experiment [1] is below 300 nM. Moreover, the IC50 in experiment [2] was below 80 nM.
Taken in the same sequence, the figures for `Cc1nc(CNCC2CC2)cc(N2Cc3ccc(-c4ccc(F)cc4-c4nncn4C)cc3C2=O)n1` [Compound 133, 2-(6-(((Cyclopropylmethyl)amino)methyl)-2-methylpyrimidin-4-yl)-6-(4-fluoro-2-(4-methyl-4H-1,2,4-triazol-3-yl)phenyl)isoindolin-1-one] were 1000 to 10000 nM and below 80 nM.
Taken in the same sequence, the figures for `C[C@@H](NC1CCCC1)c1cc(Cl)nc(N2Cc3ccc(C4(Cc5nncn5C)COC4)cc3C2=O)c1` (single isomer, unassigned) [Compound 232] were below 300 nM and below 80 nM.
For `Cn1cnnc1CC1(c2ccc3c(c2)C(=O)N(c2cc(CN4CCc5ccccc5C4)cc(C(F)(F)F)n2)C3)COC1` [Compound 31, 2-(4-((3,4-Dihydroisoquinolin-2(1H)-yl)methyl)-6-(trifluoromethyl)pyridin-2-yl)-6-(3-((4-methyl-4H-1,2,4-triazol-3-yl)methyl)oxetan-3-yl)isoindolin-1-one] the same measures were 1000 to 10000 nM and 300 to 5000 nM.
Regarding `Cn1cnnc1CC1(c2ccc3c(c2)C(=O)N(c2cc(CNCC4CCCC4)cc(Cl)n2)C3)COC1` [Compound 159, 2-(6-Chloro-4-(((cyclopentylmethyl)amino)methyl)pyridin-2-yl)-6-(3-((4-methyl-4H-1,2,4-triazol-3-yl)methyl)oxetan-3-yl)isoindolin-1-one], the half-maximal effective concentration (EC50) in experiment [1] was below 300 nM. Moreover, the IC50 in experiment [2] was below 80 nM.
Turning to `Cc1cc(CNCCC2CC2)cc(N2Cc3ccc(-c4ccc(F)cc4-c4nncn4C)cc3C2=O)n1` [Compound 307, 2-(4-(((2-Cyclopropylethyl)amino)methyl)-6-methylpyridin-2-yl)-6-(4-fluoro-2-(4-methyl-4H-1,2,4-triazol-3-yl)phenyl)isoindolin-1-one], the EC50 in experiment [1] is below 300 nM. Further, the IC50 in experiment [2] was below 80 nM.
For `C[C@H]1CCCN(Cc2cc(N3Cc4ccc(C5(Cc6nncn6C)COC5)cc4C3=O)cc(C(C)(C)C)c2)C1` [Compound 16, (S)-2-(3-(tert-Butyl)-5-((3-methylpiperidin-1-yl)methyl)phenyl)-6-(3-((4-methyl-4H-1,2,4-triazol-3-yl)methyl)oxetan-3-yl)isoindolin-1-one] the same measures were 300 to 1000 nM and 80 to 300 nM.
For `Cn1cnnc1CC1(c2ccc3c(c2)C(=O)N(c2cc(CNCC(C)(C)O)cc(Cl)n2)C3)COC1` [Compound 187], the half-maximal effective concentration (EC50) in experiment [1] lay within 1000 to 10000 nM. Also, the IC50 in experiment [2] is below 80 nM.
With `Cc1cc(CNCC2CCC2)cc(N2Cc3ccc(-c4ccc(F)cc4-c4nncn4C)cc3C2=O)n1` [Compound 134, 2-(4-(((Cyclobutylmethyl)amino)methyl)-6-methylpyridin-2-yl)-6-(4-fluoro-2-(4-methyl-4H-1,2,4-triazol-3-yl)phenyl)isoindolin-1-one], the concentration for a half-maximal effect (EC50) in experiment [1] was below 300 nM. In addition, in experiment [2], the IC50 was below 80 nM.
Taken in the same sequence, the figures for `[2H]C([2H])([2H])n1cnnc1-c1cc(F)ccc1-c1ccc2c(c1)C(=O)N(c1cc(CNCC3CC3)cc(C)n1)C2` [Compound 310, 2-(4-(((Cyclopropylmethyl)amino)methyl)-6-methylpyridin-2-yl)-6-(4-fluoro-2-(4-(methyl-d3)-4H-1,2,4-triazol-3-yl)phenyl)isoindolin-1-one] were below 300 nM and below 80 nM.
As for `C[C@H]1CCCN(Cc2cc(Cl)nc(N3Cc4ccc([C@@H](C)Cc5nncn5C)cc4C3=O)c2)C1` (single isomer, unassigned) [Compound 91], the EC50 in experiment [1] was below 300 nM. In addition, the half-inhibitory concentration (IC50) in experiment [2] is below 80 nM.
In the case of `Cn1cnnc1CC1(c2ccc3c(c2)C(=O)N(c2cc(CNC[C@@H]4CCCO4)cc(Cl)n2)C3)COC1` (single isomer, unassigned) [Compound 196], the EC50 in experiment [1] was below 300 nM. The concentration for half-maximal inhibition (IC50) in experiment [2] is below 80 nM.
For `Cn1cnnc1CC1(c2ccc3c(c2)C(=O)N(c2cc(CNC4CCCC4O)cc(Cl)n2)C3)COC1` (stereo not shown) [Compound 193, 2-(6-Chloro-4-(((2-hydroxycyclopentyl)amino)methyl)pyridin-2-yl)-6-(3-((4-methyl-4H-1,2,4-triazol-3-yl)methyl)oxetan-3-yl)isoindolin-1-one] the same measures were 1000 to 10000 nM and below 80 nM.

The values are drawn from patent publication US20260226073A1 (AURIGENE ONCOLOGY LIMITED, priority 2023, published 2026).
